Molecule `CCOC(=O)c1nc(C=Cc2ccc(Cl)cc2)oc1C` has a melting point of 105 to 106 °C. Molecule `Cc1ccc2c(c1)C(c1ncnc3c1cnn3C1CCCC1)C(=O)N2` (stereo not drawn) has a melting point of over 300 °C. With `CCCCNc1cc(-c2c(-c3cccc(C)c3)nc3cccnn23)ccn1` the melting point was 128 to 129 °C. For `COC(=O)c1ccc2c(c1)S(=O)(=O)c1ccccc1N=C2Cl`, the melting point was 254 to 256 °C. In the case of `CN(C)C=NC(=O)c1ccc(C(=O)N2Cc3cccn3Cc3ccccc32)cc1`, the melting point is reported as 232 to 234 °C. With `CCOC(=O)c1ccc(-c2ncc(-c3ccc(Cl)cc3)o2)cc1` the melting point was 195 to 197 °C. Work on `Clc1ccc(Cc2cccnn2)c(Cl)c1` yielded a melting point of 67 to 69 °C. Work on `CCCCCCCCc1ccc(C=CC(=O)CC(=O)OCC)cc1` yielded a melting point of 57 °C. For `O=C(O)C=C(c1cccc(Cl)c1)c1cccc(Cl)c1`, the melting point was 114 to 115 °C. `Cc1cc(F)ccc1Nc1nc(N(C)c2ccccc2)c2cc(OCCCN(C)C)ccc2n1` gave a melting point of 103 to 104 °C. `COC1=C(OC)C(=O)C(CN2CCN(C(=S)SC)CC2)=C(C)C1=O` gave a melting point of 115 to 116 °C. With `Cc1cc(Cc2nnc(Nc3ccc(Cl)cc3)c3ccccc23)cc(C)n1` the melting point was 175 to 176 °C. Molecule `NC(CC1c2ccccc2Oc2ccccc21)(C(=O)O)c1ccc(C(=O)O)c(O)c1` (stereo not drawn) has a melting point of 191 to 194 °C. `COc1cc(C=O)ccc1OCC#CI` showed a melting point of 121 to 127 °C. Work on `COc1cc(-n2nc(C#N)cc2-c2ccc(S(C)(=O)=O)cc2)ccc1Br` yielded a melting point of 212 to 214 °C. In the case of `Cc1ccc(C(=O)Nc2c[nH]nc2C(=O)NCCC(F)(F)F)cn1`, the melting point is reported as 196 to 197 °C. For `CCOC(=O)c1nc2ccc(F)cc2n(CC)c1=O`, the melting point was 99 to 102 °C. In the case of `COc1ccc(CCNC(=O)CC=CCC(=O)NCCc2ccccc2)cc1OC`, the melting point is reported as 150 to 152 °C. `CC(C)Oc1nn(CCO)cc1C(=O)NCc1ccc(C(F)(F)F)cc1` showed a melting point of 107 to 108 °C. In the case of `O=C(O)c1c(C(O)=S)cc([N+](=O)[O-])cc1-c1ccccc1`, the melting point is reported as 182 to 184 °C. With `CNC1(C2CCCCC2)C(=O)Nc2ccc(Cl)cc21` (stereo not drawn) the melting point was 195 to 198 °C. Molecule `[N-]=[N+]=Nc1ccc(C(=O)NCCCC[C@@H](C(=O)O)n2c3ccccc3c3ccccc32)cc1` has a melting point of 98 to 100 °C. With `CC1CCc2nc(=O)c(C(N)=O)cn21` (stereo not drawn) the melting point was 223 °C. For `Cc1cc(-n2ccnc2)c2cccc(OCc3c(Cl)ccc(S(=O)(=O)N4CCC[C@H]4C(=O)NCCN(C)C)c3Cl)c2n1`, the melting point was 88 °C. For `CCCCCCCCCCCCCCCCCNC(=O)OCCSCCOC(=O)NCc1ccccn1`, the melting point was 73 to 74 °C. For `Cc1ccc(S(=O)(=O)NC(=O)CC(=O)N2CCCC2C(=O)N2CCN(C3(N4CCCC4)N=CC=C(N4CCCC4)N3)CC2)cc1` (single isomer, unassigned; (-)), the melting point was 170 °C. For `CC1CCCN1CCCOc1ccc2c(c1)CCC1CC(=O)NN=C21` (stereo not drawn), the melting point was 193 to 195 °C. Work on `CCOC(=O)C=CCCc1cn(C(c2ccccc2)(c2ccccc2)c2ccccc2)cn1` yielded a melting point of 86 to 88 °C. With `CCCn1c(=O)c2ccc(NC(=O)CC3CCCC3)cc2n1Cc1ccc(C(=O)OC)cc1OC` the melting point was 74.5 to 77 °C. With `CN1CCN(c2cccc3ccc(-n4cnc5ccccc54)cc23)CC1` the melting point was 148 to 150 °C. `CCN(C)c1nc(-c2cc(OC)c(OC)c(OC)c2)nc2sc(C#N)c(C)c12` showed a melting point of 163 to 164 °C. `Cc1ccc(-c2ncc(O)nc2-c2ccc(C)cc2)cc1` gave a melting point of 250 to 254 °C. `Cn1cnc2c(=O)[nH]c(N)nc21` gave a melting point of over 300 °C. `O=C(O)[C@H](Cc1ccccc1)NC(=O)[C@@H]1CCCN1S(=O)(=O)c1ccc([N+](=O)[O-])cc1` gave a melting point of 70 to 80 °C. `CC(C)c1ccc2c(c1)c(-c1ccccc1Cl)c(NC(=O)Nc1ccc(F)cc1F)c(=O)n2C` gave a melting point of 152 to 156 °C. `CC(n1cnc2cc(-c3ccc(C4=NCCO4)cc3)sc2c1=O)C(O)(Cn1cncn1)c1ccc(F)cc1F` (stereo not drawn) gave a melting point of 235 to 236 °C. With `Cc1cc(C)c(Nc2nc(C)ccc2S(=O)(=O)c2ccc(OCc3c(C)cccc3C)cc2)c(C)c1` the melting point was 136 to 138 °C. `Fc1ccc(-c2[nH]cc(C3CCN4CCCC4C3)c2-c2ccncc2)cc1` (stereo not drawn) gave a melting point of 263 to 265 °C. Work on `CCOC(=O)COC1CCC2C3CCC4N(C)C(=O)CCC4(C)C3CCC12C` (stereo not drawn) yielded a melting point of 39 to 41 °C. With `NS(=O)(=O)Oc1cccc(C(=O)c2ccccc2)c1` the melting point was 72 to 74 °C. Work on `O=c1ccc(S(=O)(=O)c2[nH]c3ccccc3c2Cl)n[nH]1` yielded a melting point of 250 °C. `CCc1cc(N(C)C(=O)N2CCN(c3cc(OC)cc(OC)c3)CC2)c(OC)nc1C` showed a melting point of 78 to 79 °C. `CCC(C)(C)NC(Nc1ccc2ncsc2c1)=C(C#N)S(C)(=O)=O` gave a melting point of 112 to 114 °C. Work on `CC(C)(C)NC(=O)Nc1nc2nc(N)ncc2cc1-c1ccccc1` yielded a melting point of over 250 °C. With `COCC(=O)Nc1cc2c(cc1Br)CCC2` the melting point was 84 to 86 °C. `COC(=O)c1cc(N2CCSCC2)c(C(F)(F)F)cc1[N+](=O)[O-]` showed a melting point of 68 to 82 °C. For `CC/C(=C\CCC(O)(CC)CC)c1cc(COc2ccc(CO)c(CO)c2)cs1`, the melting point was 63 to 64 °C. In the case of `COC(=O)/C(=C/c1ccc2[nH]ccc2c1)N=[N+]=[N-]`, the melting point is reported as 130 to 133 °C. With `CC(C)(C)c1ccc(CCC(CC2CCCCC2)OC(=O)OCC(=O)O)cc1NC(=O)CC1c2ccccc2Oc2ccccc21` (stereo not drawn) the melting point was 143 to 145 °C. With `CCCN([C@H]1COc2c(F)ccc(C(N)=O)c2C1)C(C)(C)C` the melting point was 70 to 75 °C. Work on `CCCCc1oc2ccccc2c1C(=O)NCc1ccc2c(-c3ccccc3)c(O)ccc2c1` yielded a melting point of 72 °C. `COc1cc2c(C)c(C#N)cnc2cc1OCc1cccnc1` showed a melting point of 206 to 210 °C. Molecule `C#CCn1c2c(c3ccccc31)CCCC2` has a melting point of 74 to 76 °C. `COC(=O)N[C@@H](CSc1ccccc1)[C@H](O)CCl` showed a melting point of 113 to 114 °C. Molecule `Cc1cc(N(C)CCO)cc(C)n1` has a melting point of 139 to 144 °C. For `COc1cc(CCC(=O)CC(=O)CCc2ccc(O)c(OC)c2)ccc1O`, the melting point was 92 to 94 °C. For `NC(=O)N1CCC(c2nn(-c3ccc(C(F)(F)F)cc3)c3cc(F)ccc23)CC1`, the melting point was 148 to 150 °C. For `CC(=O)c1cccc(NC(=O)C2CC2)c1`, the melting point was 136 to 137 °C. With `CCN(C)c1nsc(N)c1C#N` the melting point was 94 to 95 °C. Work on `CC(C)c1nc(COC(N)=O)n(C)c1Sc1cc(Cl)cc(Cl)c1` yielded a melting point of 146 to 148 °C. Work on `Cc1c(N)ccc2[nH]cc(CCCO)c12` yielded a melting point of 141 to 142 °C. For `CCOC(=O)NC(=O)N1CC1C#N` (stereo not drawn), the melting point was 108 to 110 °C. `O=C1Cc2cccc(CNC(=O)C3Cc4ccccc4N3S(=O)(=O)c3ccc(-c4cccc(C(F)(F)F)c4)cc3)c2N1` (stereo not drawn) showed a melting point of 50 °C. `COc1nc(-c2ccc(=O)n(C(C)C)n2)c(-c2ccccc2)nc1N` gave a melting point of 211 to 214 °C. `CCCCn1c(C)c(Br)c(=O)c(C(=O)Nc2ccc(Br)cc2C)c1C` gave a melting point of 190 to 192 °C. For `CC(C)N1CC(C(=O)c2ccc(Cc3ccc(F)cc3)s2)=C(O)C1=O`, the melting point was 138 to 139 °C. In the case of `Cc1ccc(C(=O)O)c(Oc2ccc3c(c2)c(C(=O)O)c(CC(=O)O)n3-c2ccc(OC(C)C)cc2)n1`, the melting point is reported as 179 °C. With `Brc1ccc2cc(Cc3cc4ccc(Br)cc4o3)oc2c1` the melting point was 146 to 147 °C. For `O=C(O)C=Cc1cc(OCc2ccccc2)cc(OCc2ccccc2)c1`, the melting point was 154 to 156 °C. Work on `N#Cc1c(SC(F)(F)F)c(N)n(-c2c(Cl)cc(C(F)(F)F)cc2Cl)c1C#N` yielded a melting point of 175 to 177 °C. Work on `Oc1ccc(Sc2cccc(F)n2)cc1` yielded a melting point of 123 to 124 °C. `CC(C)OC(=O)C(Cl)(Cl)P(=O)(OC(C)C)c1ccccc1` (stereo not drawn) showed a melting point of 42 to 44 °C. With `CCOC(=O)c1cc(C(=O)OC)c(=O)oc1C` the melting point was 94 to 96 °C. `O=C(O)CCCCCCCCn1nc(-c2ccccc2)c(-c2ccccc2)cc1=O` showed a melting point of 100 to 103 °C. For `CSc1nc(OCC(F)(F)F)c(C#N)c(N2CCc3ccccc3CC2)n1`, the melting point was 108 to 110 °C. Work on `O=S(=O)(NCC(O)(Cn1cncn1)c1ccc(F)cc1F)c1ccc(C(F)(F)F)cc1` (stereo not drawn) yielded a melting point of 161 to 162 °C. With `O=C(CCCCCCNS(=O)(=O)c1ccc(C(=O)Nc2ccc(Cl)c(-c3ccccn3)c2)c(Cl)c1)NO` the melting point was 159 °C. Molecule `CC(=O)OCCCn1nc(-c2cc(C(C)(C)C)c(O)c(C(C)(C)C)c2)c2cccnc21` has a melting point of 75 to 77 °C. `CC(C)(C)c1ccccc1N1CCN(C(=O)C(=O)Nc2ccccn2)CC1` showed a melting point of 168 to 172 °C. With `COc1ccc(OCCO[N+](=O)[O-])c(C2NC(C(=O)O)CS2)c1` (stereo not drawn) the melting point was 110 to 112 °C. Molecule `COc1cc(N)c(I)cc1C(=O)O` has a melting point of 181 °C. Molecule `CCOC(=O)[C@H](CCc1ccccc1)NC(=O)C1(NC(=O)[C@@H](SC(C)=O)C2CCOCC2)CCCC1` has a melting point of 107 to 111 °C. `CCOC(=O)c1c(Cl)c2cccnc2[nH]c1=O` showed a melting point of 172 °C. Work on `COc1cc2ncnc(NC3=CC(=O)C(Nc4ccccc4)=CC3=O)c2cc1OC` yielded a melting point of 258 to 261 °C. Work on `CC(C)(C)OC(=O)NC(C)(C)c1ccc(-c2nc(Nc3ccc(CCN4CCOCC4)cc3)ncc2C#N)cc1` yielded a melting point of 200 °C. Molecule `COC(c1cc(C)c(OCC(=O)O)c(C)c1)(C(F)(F)F)C(F)(F)F` has a melting point of 105 to 108 °C. With `COC=C(C(=O)OC)c1cnc(C)nc1Oc1cccc(C(F)(F)F)c1` the melting point was 100 to 102 °C. Work on `CNc1nc(-c2cccc(NC(=O)c3ccc(OCc4ccccc4)cc3)c2)c2cc(OC)c(OC)cc2n1` yielded a melting point of 110 to 112 °C. In the case of `CCCOC(=O)c1cnc(S)n1C(c1ccccc1)c1ccccc1`, the melting point is reported as 133 °C. In the case of `CC(C)(C)c1cc(C=C2Sc3ccccc3N(CP(=O)(O)O)C2=O)cc(C(C)(C)C)c1O`, the melting point is reported as 232 to 233 °C. Molecule `CCCCCCCCCCCCCC(=O)NN(C)C` has a melting point of 63.5 to 64.5 °C. Work on `COc1cccc2c1C(O)CC21CCN(CCCC(=O)c2ccc(F)cc2)C1` (stereo not drawn) yielded a melting point of 152 to 154 °C. Work on `O=C(CP(=O)(O)O)NC1CCCCC1` yielded a melting point of 180 to 183 °C. `Cc1ccc(-c2nc3ccccc3c(=O)[nH]2)cc1` gave a melting point of 239 to 241 °C. Work on `Cc1nn(-c2cccnc2)c2nc3cc(F)c(F)cc3c(Cl)c12` yielded a melting point of 192 to 194 °C. In the case of `CCn1cc(C(=O)NCc2ccc(Cl)cc2)c(=O)c2cc(CCl)oc21`, the melting point is reported as 192 to 193 °C. For `Nc1c(-c2cc(Cl)ccc2O)c2cc([N+](=O)[O-])ccc2[nH]c1=O`, the melting point was 344 to 347 °C. With `CC1(C)C=C(C(=NC2CC2)NC#N)c2cc([N+](=O)[O-])ccc2O1` the melting point was 206 to 207 °C.

Reference: a melting point compilation (Tetko et al.; mined from patent text by program, amines drawn as free bases though some values may be those of a salt)
